From PubChem BioAssay (NCI)
Values joined by “and” are separate entries in the source; they are usually repeats but may differ in a detail not shown here. Equal values may be shown once.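 Step 1: Grow cells in 96-well plates. Step 2: Expose to compound for 48 hours at 5 concentrations. Step 3: Interpolate endpoints linearly; if unreached, use highest concentration. Here, GI50 denotes the concentration required for 50% inhibition of growth. TGI is the concentration that stops growth completely.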

Assays:
Test in all cases: growth of human tumour cells (NCI), 48 h
[1] = tested on: SN12C renal
[2] = tested on: HOP-92 NSCLC
[3] = tested on: UO-31 renal
[4] = tested on: CCRF-CEM leukemia
[5] = tested on: SF-295 CNS
[6] = tested on: LOX IMVI melanoma
[7] = tested on: SR leukemia
[8] = tested on: MDA-MB-231 breast
[9] = tested on: PC-3 prostate
[10] = tested on: A498 renal

Compound	TGI [1] [µM]	TGI [2]	TGI [3]	TGI [4]	TGI [5]	TGI [6]	TGI [7]	TGI [8]	TGI [9]	GI50 [1] [µM]	GI50 [2] [µM]	GI50 [3] [µM]	GI50 [5] [µM]	GI50 [6] [µM]	GI50 [7] [µM]	GI50 [8] [µM]	GI50 [9]	GI50 [4] [µM]	TGI [10] [µM]	GI50 [10] [µM]
O=C1NC(=O)C(CC2CCCCCCCCCCC2=O)C(=O)N1 (centres undefined)	> 100	> 100 µM	> 100 µM	> 100 µM	> 100 µM	> 100 µM	5.28 µM	> 100 µM	> 100 µM	–	–	–	–	–	–	–	–	–	–	–
CC(=O)C(=CN1CCN(C(=O)c2ccco2)C1=S)C(C)=O	7.11	46 µM	10.8 µM	–	52.6 µM	4.62 µM	> 100 µM	6.96 µM	46.6 µM	2.57	11.7	2.92	21.7	2.12	2.26	2.62	4.83 µM	–	–	–
Nc1ccn(C2CCC(CO)O2)c(=O)n1 (centres undefined)	> 1000	> 1000 µM	> 1000 µM	> 1000 µM	> 1000 µM	> 1000 µM	> 1000 µM	> 1000 µM	> 1000 µM	> 1000	> 1000	–	> 1000	> 1000	–	–	–	108	–	–
O=C(CCC1OCCO1)Nc1cc(NCc2ccccc2)ccc1OCc1ccccc1	> 100	73.3 µM	> 100 µM	45.7 µM	> 100 µM	> 100 µM	92 µM	> 100 µM	–	–	–	–	–	–	–	–	–	–	> 100	–
O=C(O)[C@H](NS(=O)(=O)c1ccc([N+](=O)[O-])cc1)c1ccccc1	> 100	> 100 µM	> 100 µM	> 100 µM	> 100 µM	> 100 µM	–	–	–	–	–	–	–	–	–	–	–	–	–	–
O=C(NCO)NCOCn1c(=O)n(CO)c(=O)n(CO)c1=O	> 100	–	> 100 µM	23.6 µM	> 100 µM	37.3 µM	81.9 µM	–	–	–	–	–	–	–	–	–	–	–	> 100	–
Nc1ccc2cc3ccc(N)cc3nc2c1	–	6.14 µM and 6.32 µM and 7.11 µM	5.13 µM [middle of 4 runs]	–	7.12 µM [middle of 4 runs]	7.71 µM and 3.58 µM and 3.09 µM	14.1 µM and 2.1 µM and 6.96 µM	7.94 µM and 5.03 µM and 8.4 µM	4.88 µM and 24.7 µM	1.18	–	0.412	1.47	–	–	–	0.857 µM and 1.96 µM and 1.5 µM	1.92	–	–
COc1cc(NC(C)CCCN)c2nccc(C)c2c1 (centres undefined)	> 100	> 100 µM	53.8 µM	–	35.4 µM	–	53.1 µM	–	–	–	–	–	–	–	–	–	–	–	–	–
Cc1c(C(=O)/C=C/c2ccccc2)[n+](=O)c2ccccc2n1[O-]	33.6	28 µM	34.2 µM	74.7 µM	31.5 µM	28.3 µM	66 µM	–	–	–	–	–	–	–	–	–	–	–	31.3	–
c1ccc(C2Nc3ccccc3C3OCCCC23)cc1 (centres undefined)	> 100	70.5 µM	> 100 µM	84.8 µM	37.4 µM	35.3 µM	–	–	–	–	–	–	–	–	–	–	–	–	71.9	–
CCCCCCCCCCCCCCCCCCOc1ccccc1CC(=O)OCC[N+]1(C)CCCC1	4.27	3.37 µM	15 µM	–	8.8 µM	3.36 µM	6.92 µM	3.55 µM	–	1.94	1.22	3.27	2.83	1.8	2.47	1.7	–	–	8.82	2.18
Cn1c2ccccc2c(=O)c2ccc(Cl)cc21	> 10	> 10 µM	–	> 10 µM	> 10 µM	> 10 µM	> 10 µM	–	> 10 µM	–	–	–	–	–	–	–	–	–	–	–
C/C(CC(=O)NCCc1ccccc1)=N\NC(=O)C[n+]1ccccc1	–	> 100 µM	> 100 µM	–	> 100 µM	> 100 µM	–	–	–	–	–	–	–	–	–	–	–	–	> 100	–
NC(=O)NCc1c(C(N)=O)ncn1Cc1ccccc1	> 100	> 100 µM	–	> 100 µM	> 100 µM	> 100 µM	–	–	–	–	–	–	–	–	–	–	–	–	> 100	–
CC(CO)(CO)NCCCCn1ccc2c1C(=O)c1c(c(O)c3ccccc3c1O)C2=O	24.2	22.7 µM	> 100 µM	–	26.6 µM	–	–	–	3.11 µM	11.2	5.73	4.18	11.2	–	–	–	1.52 µM	–	51	22.3
S=C1OC2CCCC[C@H]2O1 (some centres undefined)	> 100	> 100 µM	> 100 µM	> 100 µM	> 100 µM	> 100 µM	> 100 µM	–	–	–	–	–	–	–	–	–	–	–	–	–
C[C@H](O)C(=O)N1CCC(CCn2c(Sc3cc4c(cc3Br)OCO4)nc3c(N)ncnc32)CC1	> 100	> 100 µM	> 100 µM	> 100 µM	> 22.8 µM	6.9 µM	–	31.9 µM	> 100 µM	0.725	2.19	2.05	0.741	0.596	–	1.46	1.16 µM	0.49	> 100	3.35
O=C1/C(=C/c2cccc([N+](=O)[O-])c2)COc2ccc(Br)cc21	–	> 100 µM	> 100 µM	> 100 µM	> 100 µM	> 100 µM	–	–	–	–	–	–	–	–	–	–	–	–	> 100	–
C=CC/C=C/C/C=C/CCCCCCCc1cccc(O)c1C(=O)O	–	75 µM	79.1 µM	> 100 µM	> 100 µM	> 100 µM	> 100 µM	–	–	–	–	–	–	–	–	–	–	–	–	–
CCOc1cc(C(C)(C)C)ccc1C1=N[C@@](C)(c2ccc(Cl)cc2)[C@@](C)(c2ccc(Cl)cc2)N1C(=O)N1CCN(CCCS(C)(=O)=O)CC1	14.5	8.17 µM	8.59 µM	> 100 µM	15.2 µM	11 µM	> 100 µM	12.9 µM	–	3.84	2.31	0.401	4.13	0.438	0.236	3.41	–	4.1	9.46	1.64
COc1c(CCl)cc(-c2cc(=O)c3ccccc3s2)cc1CCl	> 100	1.8 µM	3.84 µM	–	36.1 µM	–	> 100 µM	–	> 100 µM	–	–	–	–	–	–	–	–	–	90.7	–
CCCSc1nc(COC(=O)NC)c(COC(=O)NC)n1C	> 100	> 100 µM	> 100 µM	86.1 µM and > 64.3 µM	> 100 µM	> 100 µM	> 100 µM	–	–	–	–	–	–	–	–	–	–	–	> 100	–
